Assay results reported in publication PMC5026600 (ACS chemical biology, 2016).
Like-named read-outs stand apart in the source and are kept apart here.

Assays:
MycCI/MycCII = target: T1, MycCI/MycCII (Micromonospora griseorubida, UniProt Q83WF5); test: Total turnover number; format: biochemical; details: MycCI/MycCII/MBP-FdR
T1 sequence (Q83WF5 1-388): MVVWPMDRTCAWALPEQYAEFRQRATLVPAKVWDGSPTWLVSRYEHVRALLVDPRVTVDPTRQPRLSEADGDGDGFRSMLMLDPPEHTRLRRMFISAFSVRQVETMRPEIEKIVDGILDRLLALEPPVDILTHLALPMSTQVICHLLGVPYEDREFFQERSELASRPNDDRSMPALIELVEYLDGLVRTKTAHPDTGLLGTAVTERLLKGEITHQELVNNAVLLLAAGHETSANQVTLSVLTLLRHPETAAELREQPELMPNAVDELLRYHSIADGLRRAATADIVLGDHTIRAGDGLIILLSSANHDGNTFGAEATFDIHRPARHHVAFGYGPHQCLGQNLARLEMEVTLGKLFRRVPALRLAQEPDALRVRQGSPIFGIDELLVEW

MycCI [1] = target: T2, MycCI (Micromonospora griseorubida, UniProt Q83WF5); test: Equilibrium substrate binding assay; details: for Percent of enzyme in high-spin state at saturating substrate: MycCI wild-type, relative to saturation with 10 taken as complete conversion
T2 sequence (Q83WF5 1-388): T1 sequence (Q83WF5 1-388)

MycCI-RhFRED = MycCI-RhFRED (Micromonospora griseorubida, UniProt Q83WF5); test: Steady-state kinetics / TOF, product formation by HPLC; format: biochemical; details: for Fold lower rate of product formation vs tripartite MycCI system: MycCI-RhFRED compared to MycCI/MycCII/MBP-FdR, label is the product formed
MycCI [2] = target: T2, MycCI; details: determined by monitoring NADPH consumption; cited from earlier work
MycCI/MycCII/MBP-FdR = target: T3, MycCI/MycCII/MBP-FdR (Micromonospora griseorubida, UniProt Q83WF5); test: Steady-state kinetics / TOF, product formation by HPLC; format: biochemical
T3 sequence (Q83WF5 1-388): T1 sequence (Q83WF5 1-388)

TylHI/MycCII = TylHI/MycCII (Streptomyces fradiae, UniProt Q9ZHQ1); test: Turnover frequency; format: biochemical; details: MycCII as surrogate ferredoxin vs TylHII
TylHI/TylHII = TylHI/TylHII (Streptomyces fradiae, UniProt Q9ZHQ1); test: Turnover frequency; format: biochemical; details: TylHI/TylHII/MBP-FdR
TamI-RhFRED = details: cited from earlier work
[3] = target: MycCI (Micromonospora griseorubida) (UniProt Q83WF5); details: cited from earlier work
[4] = target: T4, MycCI in conjunction with MycCII and MBP-FdR (Micromonospora griseorubida, UniProt Q83WF5); test: Scale-up reactions with MycCI, MycCII and MBP-FdR, conversion; format: biochemical; details: for Conversion: scale-up reactions
T4 sequence (Q83WF5 1-388): T1 sequence (Q83WF5 1-388)

OleP = details: binding to OleP; cited from earlier work
MycCI [5] = target: T2, MycCI; details: read-out: apparent dissociation constant (Kd); N-terminal His-tagged MycCII binding to MycCI; cited from earlier work

TylHI/MycCII, sequence (Q9ZHQ1 whole entry): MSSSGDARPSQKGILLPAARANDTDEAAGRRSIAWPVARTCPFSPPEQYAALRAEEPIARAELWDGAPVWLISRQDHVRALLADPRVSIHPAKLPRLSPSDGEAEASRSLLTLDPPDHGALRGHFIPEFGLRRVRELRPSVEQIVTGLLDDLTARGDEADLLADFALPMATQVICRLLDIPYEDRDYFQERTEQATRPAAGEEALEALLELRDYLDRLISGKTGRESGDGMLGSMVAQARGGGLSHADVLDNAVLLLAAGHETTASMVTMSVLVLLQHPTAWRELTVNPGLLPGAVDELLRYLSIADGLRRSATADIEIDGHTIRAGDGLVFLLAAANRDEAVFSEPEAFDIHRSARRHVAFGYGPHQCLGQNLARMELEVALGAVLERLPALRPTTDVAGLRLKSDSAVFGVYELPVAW
TylHI/TylHII, sequence (Q9ZHQ1 whole entry): as above

In the case of CC[C@H]1OC(=O)[C@H](C)[C@@H](O[C@@H]2O[C@H](C)C[C@H](N(C)C)[C@H]2O)[C@@H](C)C[C@@H](C)C(=O)/C=C/[C@H]1C [compound 3, YC-17], the “C-H oxidation of the compound by the enzyme” value (from here on “C-H oxidation of the compound”) (MycCI/MycCII) is reported as “unable to catalyze C-H oxidation” and the “Percent of enzyme in high-spin state at saturating substrate” value (from here on “Percent of enzyme in high-spin state”) (MycCI [1]) is reported as ~ 30%.

For CC[C@H]1OC(=O)/C=C/[C@H](C)[C@@H](O[C@@H]2O[C@H](C)C[C@H](N(C)C)[C@H]2O)[C@@H](C)C[C@@H](C)C(=O)/C=C/C=C/[C@@H]1C [compound 9, mycinamicin VIII], the “Turnover frequency (TOF)” value (MycCI-RhFRED; MycCI-RhFRED, 500 μM substrate) is listed as 1.19 ± 0.06 min⁻¹, the kcat (MycCI [2]) is listed as 1.73 ± 0.033 s⁻¹ and the “Turnover rate at low substrate concentration” value (MycCI/MycCII/MBP-FdR; MycCI/MycCII/MBP-FdR, 10 μM substrate) is listed as 2.3 ± 0.3 min⁻¹. The “Turnover frequency (TOF)” value (MycCI/MycCII/MBP-FdR; tripartite MycCI/MycCII/MBP-FdR, 500 μM substrate) was 1.4 ± 0.1 min⁻¹.

With CC[C@H]1OC(=O)C[C@@H](O)[C@H](C)[C@@H](O[C@@H]2O[C@H](C)[C@@H](O)[C@H](N(C)C)[C@H]2O)[C@@H](CC=O)C[C@@H](C)C(=O)/C=C/C(C)=C/[C@@H]1C [compound 12, 23-deoxy-5-O-mycaminosyl-tylonolide] the “Fold increase of TOF with MycCII instead of TylHII” value (TylHI/MycCII) was 12 fold and the “Turnover frequency (TOF)” value (TylHI/TylHII) was 0.14 ± 0.03 min⁻¹.

In the case of CC(/C=C/C(O)=C1/C(=O)CNC1=O)=C\[C@@H](C)[C@H]1O[C@@]2(C)O[C@H](C(=O)[C@H]3O[C@]32C)[C@@H]1C [tirandamycin A], the kcat (TamI-RhFRED) is given as 0.00183 ± 0.00017 s⁻¹.

In the case of MycCII (from UniProt Q83WF4), the Kd [3] is listed as 7 µM.

With CC[C@H]1OC(=O)[C@H](C)C(=O)[C@H](C)[C@@H](O[C@@H]2O[C@H](C)C[C@H](N(C)C)[C@H]2O)[C@@H](C)C[C@@H](C)C(=O)/C=C/[C@H]1C [compound 5, narbomycin] the “Percent of enzyme in high-spin state” value (MycCI [1]) was ~ 80%, the “Monohydroxylated product, share of the reaction mixture” value ([4]; scale-up, first monohydroxylated product) was ~ 2% and the “Slightly more polar monohydroxylated product, share of the reaction mixture” value ([4]; scale-up, second product) was ~ 0.5%.

With 23-hydroxy-tylactone [compound 15] the “Fold lower rate of product formation vs tripartite MycCI system” value (MycCI-RhFRED) was “about 3 fold”.

With CC[C@H]1OC(=O)/C=C/[C@H](C)[C@@H](O)[C@@H](C)C[C@@H](C)C(=O)/C=C/C=C/[C@@H]1CO [compound 13, mycinolide IV] the “Fold lower rate of product formation vs tripartite MycCI system” value (MycCI-RhFRED) was roughly 6 fold.

For CC(=O)N1CCN(c2ccc(OCC3COC(Cn4ccnc4)(c4ccc(Cl)cc4Cl)O3)cc2)CC1 (centres unmarked) [ketoconazole], the Kd (OleP) is listed as 0.005 µM.

For CC[C@H]1OC(=O)[C@H](C)[C@@H](O)[C@@H](C)C[C@@H](C)C(=O)/C=C/[C@H]1C [compound 2, 10-deoxymethynolide], the “C-H oxidation of the compound” value (MycCI/MycCII) was “unable to catalyze C-H oxidation” and the “Concentration-dependent change in the spin state of the enzyme” value (MycCI [1]; MycCI) was “did not induce a concentration-dependent change in the spin state”.

For CC[C@H]1C[C@@H](C)C(=O)/C=C/C(C)=C/[C@H](C)[C@@H](CC)OC(=O)C[C@@H](O)[C@H](C)[C@H]1O [compound 10, tylactone], the Kd (MycCI [1]; Kd, MycCI) was roughly 3 µM and the Conversion [4] was ~ 50%.

In the case of CC[C@H]1OC(=O)/C=C/[C@H](C)[C@@H](O)[C@@H](C)C[C@@H](C)C(=O)/C=C/C=C/[C@@H]1C [compound 8, protomycinolide IV], the “Percent of enzyme in high-spin state” value (MycCI [1]) is reported as ~ 80%, the “Fold lower specificity constant relative to 10” value (MycCI-RhFRED; MycCI-RhFRED, product formation) is reported as ~ 14 fold and the Conversion [4] is reported as ~ 30%.

For CC[C@H]1OC(=O)[C@H](C)C(=O)[C@H](C)[C@@H](O)[C@@H](C)C[C@@H](C)C(=O)/C=C/[C@H]1C [compound 4, narbonolide], the “C-H oxidation of the compound” value (MycCI/MycCII) was “unable to catalyze C-H oxidation” and the “Concentration-dependent change in the spin state of the enzyme” value (MycCI [1]; MycCI) was “did not induce a concentration-dependent change in the spin state”.

B1: MycCII: [3Fe-4S]-type ferredoxin encoded by mycCII, redox partner of MycCI (protein)
chain: MRIVLDAERCVGAGQCEATAPELFTQGDDGLGLVRDRPVTPELLGPAREAVDRCPVRAIRIESSVRTGWARGAG
modifications: left off: His tag, N-terminal, state not stated
In the case of B1, the Kd (MycCI [5]) is given as 7 µM.
